Converted amounts (≈) assume the structure as drawn. “And” between values parts separate entries of the source, which are not always exact repeats. Equal entries are not always repeated. “Also recorded” adds a separate entry of the source. Where two headings read alike, the source gives them in different places.
Experiments:
[1] = system: S. cerevisiae C10 resistant mutants (CDC60 editing domain mutations); test: MIC (NCCLS M27), spontaneous and EMS induced C10 resistant mutants; format: cell-based, Saccharomyces cerevisiae; settings: for MIC: Saccharomyces cerevisiae
Experimental: The haploid Saccharomyces cerevisiae strain ATCC 201388 was used in the selection of C10 resistant mutants. Spontaneous and EMS-induced resistant mutants were isolated from YPD agar plates containing 4×, 8×, 16×MIC of C10. All minimal inhibitory concentrations (MIC) were determined using NCCLS protocol M27 with the exception of using YPD or synthetic defined media. All yeast and molecular genetic manipulations were essentially performed as described by Guthrie C., et al., Methods in Enzymology, 350: Part B, (2002).
Resistant mutants appeared after 2 d incubation at 30° C. Frequency of resistance was determined by dividing the number of resistant mutants by the total number of cells plated as determined by plating dilutions of the overnight culture on YPD plates.
A 2.5 mL of the overnight culture, which was grown in YPD media, was centrifuged at 700×g for 5 minutes. The cell pellet was resuspended in 10 mL 50 mM potassium phosphate buffer, pH 7.0. The cell suspension was centrifuged again and the cell pellet was resuspended in phosphate buffer to obtain a cell density of 5×10^7 cells/mL as determined by counting the cells using a Petroff Hausser Counting Chamber (Horsham, Pa. USA). The cell suspension was shaken with 300 μL of EMS (Alfa Aesar, Ward Hill, Mass., USA) for 30 min. at 30° C. The mutagenesis was stopped by adding 10% (w/v) sodium thiosulfate (Sigma-Aldrich, St. Louis, Mo., USA), and the cells were pelleted by centrifugation at 700×g for 5 min. and resuspended in 1 mL sterile H2O. This was repeated once more before the cells were plated on YPD agar plates containing 1.6 μg/mL of C10.
(§1) The minimal inhibitory concentration (MIC) was essentially performed following the NCCLS guidelines outlined in the M27 protocol with the exception of using YPD or synthetic defined media (SDM).

[2] = system: S. cerevisiae ATCC201388 bearing pRS425 or CDC60 on pRS425; test: MIC with over-expression of wild type CDC60; format: cell-based, Saccharomyces cerevisiae; settings: for MIC: Saccharomyces cerevisiae
Source text: as §1
A 4.0 kb BamH I-Sal I DNA fragment containing the entire CDC60 open reading frame (ORF) and 700 bp of upstream sequence was amplified using KOD DNA polymerase, S. cerevisiae genomic DNA (Novagen, Madison, Wis., USA), and the primers GAGGGATCCGGTTAGTTTTAGTTCGCGAGTGACCTG and GAGGTCGACGATTTCTGGTTGCTGTTTATTGATCTT (Operon, Alameda, Calif., USA). This DNA fragment was then cloned into the […] multi-copy plasmid pRS425, and transformed into S. cerevisiae ATCC201388 (Gietz, R D et al., Methods in Enzymology 305: 87-96 (2002)).

[3] = Log P determination (octanol/water) by LC/MS/MS; format: physicochemical; settings: for Conc. in Octanol / Conc. in Water: partition
Experimental: C10 (10 μL of […]) at 2× the final concentration was added to 0.5 mL pre-saturated n-octanol and mixed. An equal volume (0.5 mL) of pre-saturated water was added, vortex mixed and then mixed on a rotating shaker for one hour and 24 h in triplicate at ca. 25° C. The organic and aqueous layers were separated by centrifugation for 5 min at ca. 2000 rpm. Twenty five […] of the octanol (top) layer were removed and placed in a pre-labeled tube. Twenty five L of the aqueous layer (bottom) were removed, taking care to avoid octanol contamination, and placed in a pro-labeled tube.
For the octanol sample, 25 μL of ethanol, 25 μL of water and 300 μL of acetonitrile containing the internal standard was added. For the water sample, 25 μL of ethanol, 25 μL of octanol and 300 μL of acetonitrile containing the internal standard [60 mL of acetonitrile add 6 μL of PNP (1000 μg/mL)] was added. For the calibrators 25 μL of octanol, 25 μL of water and 300 μL of acetonitrile containing the internal standard was added. The sample was vortexed for 10 seconds. Two hundred μL of the organic layer were transferred into a clean deactivated autosampler vial.
A 1/concentration weighted linear regression was used for the quantitation of C10. All integration were performed with peak areas using Analyst version 1.3, Applied Biosystems. For C10, peak area ratios analyte to internal standard PNP were used for all quantitation.
The partition coefficient (P) was calculated according to the equation detailed below: P=[Sample concentration]octanol/[Sample concentration]water Log P=log10(partition coefficient) Results: […]

OB1OCc2cc(F)ccc21 [C10, 5-fluorobenzo[c][1,2]oxaborol-1(3H)-ol]
increase in resistance (MIC) of resistant mutants over wildtype ([1]; 11 C10 resistant mutants): 8-64 fold
increased resistance over wildtype in the minimal inhibitory concentration test ([1]; 23 C10 resistant mutants (Example 41)): 8-64 fold
MIC ([1]; Table 1, mutant (A), CDC60 N415D): 4 µg/mL (≈ 26.3 µM)
MIC ([1]; Table 1, mutant (B), CDC60 R316I): 16 µg/mL (≈ 105 µM)
MIC ([1]; Table 1, mutant (C), CDC60 C326F): 16 µg/mL (≈ 105 µM)
MIC ([1]; Table 1, mutant (D), CDC60 G405V): 32 µg/mL (≈ 211 µM)
MIC ([1]; Table 1, mutant (E), CDC60 C326R): 16 µg/mL (≈ 105 µM)
MIC ([1]; Table 1, mutant (F), CDC60 D487G): 32 µg/mL (≈ 211 µM)
MIC ([1]; Table 1, mutant (G), CDC60 L315V): 32 µg/mL (≈ 211 µM)
MIC ([1]; Table 1, mutant (H), CDC60 T314M): 32 µg/mL (≈ 211 µM)
MIC ([1]; Table 1, mutant (I), CDC60 S416L): 32 µg/mL (≈ 211 µM)
MIC ([1]; Table 1, mutant (J), CDC60 D487N): 32 µg/mL (≈ 211 µM)
MIC ([1]; Table 1, mutant (K), CDC60 T319I): 32 µg/mL (≈ 211 µM)
MIC ([1]; Table 2, C10 resistant mutant (C)): 16 µg/mL (≈ 105 µM)
MIC ([1]; Table 2, C10 resistant mutant (G)): 16 µg/mL (≈ 105 µM)
MIC ([1]; Table 2, C10 resistant mutant (H)): 16 µg/mL (≈ 105 µM)
increase in resistance (MIC) with additional copies of CDC60 ([2]; CDC60 on multi-copy 2 μM plasmid versus same strain bearing pRS425): eight times more resistant; also recorded: eight times higher; also recorded: eight-fold
MIC ([2]; ATCC201388, CDC60 on pRS425 (20 copies)): 1 µg/mL (≈ 6.58 µM)
MIC ([2]; ATCC201388, pRS425 Plasmid control): 0.125 µg/mL (≈ 0.823 µM)
Log P ([3]; 1 h, replicates): 1.93
Log P ([3]; 24 h, replicates): 1.89 and 1.91
mean log P ([3]; after 24 h (n=3)): 1.93
logP at 1 h ([3]; n-octanol/water, 1 h, replicates, read-out: Log P): 2.04
logP at 24 h ([3]; n-octanol/water, 24 h, replicates): 1.97
logP at 1 h ([3]; n-octanol/water, after 1 h (n=3), read-out: mean log P): 1.97
Conc. in Octanol ([3]; 1 h, replicates): 108 µg/mL and 103 µg/mL and 115 µg/mL
Conc. in Water ([3]; 1 h, replicates): 1.26 µg/mL and 1.21 µg/mL and 1.05 µg/mL
Conc. in Octanol ([3]; 24 h, replicates): 109 µg/mL and 99.0 µg/mL and 104 µg/mL
Conc. in Water ([3]; 24 h, replicates): 1.17 µg/mL and 1.28 µg/mL and 1.27 µg/mL
